Data from US7842802B2, “Vinorelbine derivatives” (priority 2003, dated 2010).

Legend:
[1] = tested on: SR; experiment: NCI 60-cell line growth inhibition assay, SR; type: cell-based, human; settings: Homo sapiens, Leukemia
Text: (§1) The following data in Table 4 summarize the growth inhibition properties of several compounds of the present invention against 60-human transformed cell lines.

[2] = tested on: ACHN; experiment: NCI 60-cell line growth inhibition assay, ACHN; type: cell-based, human; settings: Homo sapiens, Renal
Text: as §1

[3] = tested on: HL-60(TB); experiment: NCI 60-cell line growth inhibition assay, HL-60(TB); type: cell-based, human; settings: Homo sapiens, Leukemia
Text: as §1

[4] = tested on: SF-295; experiment: NCI 60-cell line growth inhibition assay, SF-295; type: cell-based, human; settings: Homo sapiens, CNS
Text: as §1

[5] = tested on: NCI-H460; experiment: NCI 60-cell line growth inhibition assay, NCI-H460; type: cell-based, human; settings: Homo sapiens, Non-Small Cell Lung
Text: as §1

[6] = tested on: KM12; experiment: NCI 60-cell line growth inhibition assay, KM12; type: cell-based, human; settings: Homo sapiens, Colon
Text: as §1

[7] = tested on: NCI-H23; experiment: NCI 60-cell line growth inhibition assay, NCI-H23; type: cell-based, human; settings: Homo sapiens, Non-Small Cell Lung
Text: as §1

[8] = tested on: CCRF-CEM; experiment: NCI 60-cell line growth inhibition assay, CCRF-CEM; type: cell-based, human; settings: Homo sapiens, Leukemia
Text: as §1

[9] = tested on: HeLa S-3 human cervical carcinoma cell line; experiment: HeLa GI50 determination (SRB); type: cell-based; settings: Homo sapiens, HeLa S3, 48 h; HeLa S-3, 2 days of treatment, SRB; read-out: HeLa Cells GI50
Outline: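 Cells plated at 2×10^4/well; day-0 plate TCA-fixed, test compounds added at 10-fold dilutions for 2 days. SRB staining, absorbance at 490 nm; GI = 100×(T−T0)/(C−T0), GI50 from growth inhibition vs. concentration plots.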

[10] = tested on: OVCAR-8; experiment: NCI 60-cell line growth inhibition assay, OVCAR-8; type: cell-based, human; settings: Homo sapiens, Ovarian
Text: as §1

[11] = tested on: NCI-H226; experiment: NCI 60-cell line growth inhibition assay, NCI-H226; type: cell-based, human; settings: Homo sapiens, Non-Small Cell Lung
Text: as §1

[12] = tested on: RXF 393; experiment: NCI 60-cell line growth inhibition assay, RXF 393; type: cell-based, human; settings: Homo sapiens, Renal
Text: as §1

[13] = tested on: NCI-H522; experiment: NCI 60-cell line growth inhibition assay, NCI-H522; type: cell-based, human; settings: Homo sapiens, Non-Small Cell Lung
Text: as §1

[14] = tested on: UACC-62; experiment: NCI 60-cell line growth inhibition assay, UACC-62; type: cell-based, human; settings: Homo sapiens, Melanoma
Text: as §1

[15] = tested on: SW-620; experiment: NCI 60-cell line growth inhibition assay, SW-620; type: cell-based, human; settings: Homo sapiens, Colon
Text: as §1

[16] = tested on: HT29; experiment: NCI 60-cell line growth inhibition assay, HT29; type: cell-based, human; settings: Homo sapiens, HT-29, Colon
Text: as §1

[17] = tested on: MDA-MB-435; experiment: NCI 60-cell line growth inhibition assay, MDA-MB-435; type: cell-based, human; settings: Homo sapiens, Breast
Text: as §1

[18] = tested on: RPMI-8226; experiment: NCI 60-cell line growth inhibition assay, RPMI-8226; type: cell-based, human; settings: Homo sapiens, Leukemia
Text: as §1

[19] = tested on: HOP-62; experiment: NCI 60-cell line growth inhibition assay, HOP-62; type: cell-based, human; settings: Homo sapiens, Non-Small Cell Lung
Text: as §1

[20] = tested on: MDA-MB-231/ATCC; experiment: NCI 60-cell line growth inhibition assay, MDA-MB-231/ATCC; type: cell-based, human; settings: Homo sapiens, Breast
Text: as §1

[21] = tested on: SNB-75; experiment: NCI 60-cell line growth inhibition assay, SNB-75; type: cell-based, human; settings: Homo sapiens, CNS
Text: as §1

[22] = tested on: MALME-3M; experiment: NCI 60-cell line growth inhibition assay, MALME-3M; type: cell-based, human; settings: Homo sapiens, Melanoma
Text: as §1

[23] = tested on: M14; experiment: NCI 60-cell line growth inhibition assay, M14; type: cell-based, human; settings: Homo sapiens, Melanoma
Text: as §1

[24] = tested on: PC-3; experiment: NCI 60-cell line growth inhibition assay, PC-3; type: cell-based, human; settings: Homo sapiens, Prostate
Text: as §1

[25] = tested on: K-562; experiment: NCI 60-cell line growth inhibition assay, K-562; type: cell-based, human; settings: Homo sapiens, K562, Leukemia
Text: as §1

[26] = tested on: DU-145; experiment: NCI 60-cell line growth inhibition assay, DU-145; type: cell-based, human; settings: Homo sapiens, Prostate
Text: as §1

[27] = tested on: HS 578T; experiment: NCI 60-cell line growth inhibition assay, HS 578T; type: cell-based, human; settings: Homo sapiens, Breast
Text: as §1

[28] = tested on: UACC-257; experiment: NCI 60-cell line growth inhibition assay, UACC-257; type: cell-based, human; settings: Homo sapiens, Melanoma
Text: as §1

[29] = tested on: HOP-92; experiment: NCI 60-cell line growth inhibition assay, HOP-92; type: cell-based, human; settings: Homo sapiens, Non-Small Cell Lung
Text: as §1

[30] = tested on: LOX IMVI; experiment: NCI 60-cell line growth inhibition assay, LOX IMVI; type: cell-based, human; settings: Homo sapiens, Melanoma
Text: as §1

[31] = tested on: SK-MEL-2; experiment: NCI 60-cell line growth inhibition assay, SK-MEL-2; type: cell-based, human; settings: Homo sapiens, Melanoma
Text: as §1

[32] = tested on: SN12C; experiment: NCI 60-cell line growth inhibition assay, SN12C; type: cell-based, human; settings: Homo sapiens, Renal
Text: as §1

[33] = tested on: A549/ATCC; experiment: NCI 60-cell line growth inhibition assay, A549/ATCC; type: cell-based, human; settings: Homo sapiens, Non-Small Cell Lung
Text: as §1

[34] = tested on: HCT-15; experiment: NCI 60-cell line growth inhibition assay, HCT-15; type: cell-based, human; settings: Homo sapiens, Colon
Text: as §1

[35] = tested on: IGROV1; experiment: NCI 60-cell line growth inhibition assay, IGROV1; type: cell-based, human; settings: Homo sapiens, IGROV-1, Ovarian
Text: as §1

[36] = tested on: SF-539; experiment: NCI 60-cell line growth inhibition assay, SF-539; type: cell-based, human; settings: Homo sapiens, CNS
Text: as §1

[37] = tested on: NCI/ADR-RES; experiment: NCI 60-cell line growth inhibition assay, NCI/ADR-RES; type: cell-based, human; settings: Homo sapiens, Breast
Text: as §1

[38] = tested on: UO-31; experiment: NCI 60-cell line growth inhibition assay, UO-31; type: cell-based, human; settings: Homo sapiens, Renal
Text: as §1

[39] = tested on: TK-10; experiment: NCI 60-cell line growth inhibition assay, TK-10; type: cell-based, human; settings: Homo sapiens, Renal
Text: as §1

[40] = tested on: SF-268; experiment: NCI 60-cell line growth inhibition assay, SF-268; type: cell-based, human; settings: Homo sapiens, CNS
Text: as §1

[41] = tested on: MCF7; experiment: NCI 60-cell line growth inhibition assay, MCF7; type: cell-based, human; settings: Homo sapiens, Breast
Text: as §1

[42] = tested on: U251; experiment: NCI 60-cell line growth inhibition assay, U251; type: cell-based, human; settings: Homo sapiens, U-251, CNS
Text: as §1

## CCC1=C[C@H]2CN(C1)Cc1c([nH]c3ccc(I)cc13)[C@@](C(=O)OC)(c1cc3c(cc1OC)N(C)[C@H]1[C@@](O)(C(=O)OC)[C@H](OC(C)=O)C4C(CC)=CCN5CC[C@]31[C@H]45)C2 (stereo partly drawn) [Example 2, 11′-iodovinorelbine]
[1]
  GI50: 0.0261 µM
[2]
  GI50: 1.43 µM
[3]
  GI50: 0.071 µM
[4]
  GI50: 0.027 µM
[5]
  GI50: 0.0432 µM
[6]
  GI50: 0.0927 µM
[7]
  GI50: 0.0528 µM
[8]
  GI50: 0.0379 µM
[9]
  GI50: 0.025 µM
[10]
  GI50: 0.0517 µM
[11]
  GI50: 0.0833 µM
[12]
  GI50: 0.0605 µM
[13]
  GI50: < 0.01 µM
[14]
  GI50: 0.0256 µM
[15]
  GI50: 0.0378 µM
[16]
  GI50: 0.0103 µM
[17]
  GI50: 1.37 µM
[18]
  GI50: 0.0167 µM
[19]
  GI50: 0.037 µM
[20]
  GI50: 0.0772 µM
[21]
  GI50: 0.0404 µM
[22]
  GI50: 0.065 µM
[23]
  GI50: > 100 µM
[24]
  GI50: 0.0573 µM
[25]
  GI50: 0.0124 µM
[26]
  GI50: 0.0257 µM
[27]
  GI50: 0.0192 µM
[28]
  GI50: 3.43 µM
[29]
  GI50: 2.25 µM
[30]
  GI50: 0.0313 µM
[31]
  GI50: 1.4 µM
[32]
  GI50: 0.0708 µM
[33]
  GI50: 0.0586 µM
[34]
  GI50: 1.07 µM
[35]
  GI50: 0.0324 µM
[36]
  GI50: 0.0379 µM
[37]
  GI50: 5.28 µM
[38]
  GI50: 0.674 µM
[39]
  GI50: 0.298 µM
[40]
  GI50: 0.0788 µM
[41]
  GI50: 0.0113 µM
[42]
  GI50: 0.0423 µM
